PubChem BioAssay (NCI)
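Cells were grown in 96-well plates and exposed to each compound for 48 hours at five concentrations; endpoints were interpolated linearly between bracketing concentrations, or set to the highest concentration if not reached. GI50 is the concentration that inhibits growth by half. TGI is the concentration that stops growth completely.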

What was measured:
Assay in all cases: DTP human tumour cell line panel, 48 h
HCT-15 colon = test system: HCT-15 colon
PC-3 prostate = test system: PC-3 prostate
TK-10 renal = test system: TK-10 renal
OVCAR-8 ovarian = test system: OVCAR-8 ovarian
A498 renal = test system: A498 renal
OVCAR-3 ovarian = test system: OVCAR-3 ovarian
HCC-2998 colon = test system: HCC-2998 colon
UACC-62 melanoma = test system: UACC-62 melanoma
A549 NSCLC = test system: A549 NSCLC
DU-145 prostate = test system: DU-145 prostate
COLO 205 colon = test system: COLO 205 colon
SR leukemia = test system: SR leukemia
SK-MEL-5 melanoma = test system: SK-MEL-5 melanoma
IGROV1 ovarian = test system: IGROV1 ovarian
SK-MEL-28 melanoma = test system: SK-MEL-28 melanoma
NCI-H522 lung = test system: NCI-H522 lung
OVCAR-4 ovarian = test system: OVCAR-4 ovarian
U251 CNS = test system: U251 CNS
RPMI-8226 leukemia = test system: RPMI-8226 leukemia
SW-620 colon = test system: SW-620 colon
SK-OV-3 ovarian = test system: SK-OV-3 ovarian
NCI-H226 lung = test system: NCI-H226 lung
SF-295 CNS = test system: SF-295 CNS
KM12 colon = test system: KM12 colon
ACHN renal = test system: ACHN renal
HT29 colon = test system: HT29 colon

Structure (SMILES): CCN1CCN(Cc2ccc(C(=O)Nc3cccc(C#Cc4cccc5[nH]nc(N)c45)c3)cc2C(F)(F)F)CC1
- TGI (HCT-15 colon): 2020 nM
- GI50 (PC-3 prostate): 1300 nM
- TGI (PC-3 prostate): 2780 nM
- GI50 (TK-10 renal): 1890 nM
- TGI (TK-10 renal): 3380 nM
- GI50 (OVCAR-8 ovarian): 1430 nM
- TGI (OVCAR-8 ovarian): 2800 nM
- GI50 (A498 renal): 2540 nM
- TGI (A498 renal): 4210 nM
- GI50 (OVCAR-3 ovarian): 1180 nM
- TGI (OVCAR-3 ovarian): 2860 nM
- GI50 (HCC-2998 colon): 1300 nM
- TGI (HCC-2998 colon): 2560 nM
- GI50 (UACC-62 melanoma): 1320 nM
- TGI (UACC-62 melanoma): 2620 nM
- GI50 (A549 NSCLC): 1300 nM
- TGI (A549 NSCLC): 2600 nM
- GI50 (DU-145 prostate): 1530 nM
- TGI (DU-145 prostate): 3120 nM
- GI50 (COLO 205 colon): 1190 nM
- TGI (COLO 205 colon): 2720 nM
- GI50 (SR leukemia): 1780 nM
- TGI (SR leukemia): 4590 nM
- GI50 (SK-MEL-5 melanoma): 1540 nM
- TGI (SK-MEL-5 melanoma): 2900 nM
- GI50 (IGROV1 ovarian): 965 nM
- TGI (IGROV1 ovarian): 2480 nM
- GI50 (SK-MEL-28 melanoma): 1630 nM
- TGI (SK-MEL-28 melanoma): 3000 nM
- GI50 (NCI-H522 lung): 1100 nM
- TGI (NCI-H522 lung): 2400 nM
- GI50 (OVCAR-4 ovarian): 1040 nM
- TGI (OVCAR-4 ovarian): 5300 nM
- GI50 (U251 CNS): 1510 nM
- TGI (U251 CNS): 2850 nM
- GI50 (RPMI-8226 leukemia): 1590 nM
- TGI (RPMI-8226 leukemia): 3920 nM
- GI50 (SW-620 colon): 1230 nM
- TGI (SW-620 colon): 2810 nM
- GI50 (SK-OV-3 ovarian): 2190 nM
- TGI (SK-OV-3 ovarian): 4560 nM
- GI50 (NCI-H226 lung): 1190 nM
- TGI (NCI-H226 lung): 3600 nM
- GI50 (SF-295 CNS): 1430 nM
- TGI (SF-295 CNS): 2820 nM
- GI50 (KM12 colon): 1660 nM
- TGI (KM12 colon): 3270 nM
- GI50 (ACHN renal): 598 nM
- TGI (ACHN renal): 1870 nM
- GI50 (HT29 colon): 1100 nM
- TGI (HT29 colon): 2450 nM
